According to BindingDB's records for doi:10.1016/S0960-894X(97)00421-6 (1997):

target: Growth hormone secretagogue receptor type 1 (Rattus norvegicus) (UniProt O08725); assay: Ability to release growth hormone in a rat pituitary cell assay
Sequence (O08725 whole entry, looked up): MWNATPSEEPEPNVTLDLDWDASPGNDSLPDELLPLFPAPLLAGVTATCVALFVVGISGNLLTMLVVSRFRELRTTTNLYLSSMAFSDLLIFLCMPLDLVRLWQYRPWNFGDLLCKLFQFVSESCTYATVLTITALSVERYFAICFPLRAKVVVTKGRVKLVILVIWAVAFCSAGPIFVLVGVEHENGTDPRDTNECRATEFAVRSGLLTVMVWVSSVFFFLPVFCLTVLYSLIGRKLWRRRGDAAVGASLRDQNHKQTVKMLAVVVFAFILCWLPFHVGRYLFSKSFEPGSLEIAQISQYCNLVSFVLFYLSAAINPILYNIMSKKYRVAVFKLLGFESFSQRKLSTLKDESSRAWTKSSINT

EC50 [nM] | Compound
2.3 | CC(C)(N)C(=O)N[C@H](CCCc1ccccc1)C(=O)N1CCC2(CC1)C[C@H](CC(=O)O)c1ccccc12
2.5 | CC(C)(N)C(=O)N[C@H](CCCc1ccccc1)C(=O)N1CCC2(CC1)CC(CCC(=O)O)c1ccccc12 (stereo partly drawn)
0.8 | CCOC(=O)C[C@@H]1CC2(CCN(C(=O)[C@@H](CCCc3ccccc3)NC(=O)C(C)(C)N)CC2)c2ccccc21
1.9 | CC(C)(N)C(=O)N[C@H](CCCc1ccccc1)C(=O)N1CCC2(CC1)C[C@@H](CC(=O)O)c1ccccc12
5.8 | CC(C)(N)C(=O)N[C@H](Cc1c[nH]c2ccccc12)C(=O)N1CCC2(CC1)C[C@@H](CC(=O)O)c1ccccc12
28 | CCOC(=O)C[C@H]1CC2(CCN(C(=O)[C@@H](Cc3c[nH]c4ccccc34)NC(=O)C(C)(C)N)CC2)c2ccccc21
7 | CCOC(=O)C[C@@H]1CC2(CCN(C(=O)[C@@H](Cc3c[nH]c4ccccc34)NC(=O)C(C)(C)N)CC2)c2ccccc21
6 | CCOC(=O)[C@H]1CC2(CCN(C(=O)[C@@H](Cc3c[nH]c4ccccc34)NC(=O)C(C)(C)N)CC2)c2ccccc21
8.3 | CCOC(=O)[C@@H]1CC2(CCN(C(=O)[C@@H](Cc3c[nH]c4ccccc34)NC(=O)C(C)(C)N)CC2)c2ccccc21
1 | CCOC(=O)C[C@H]1CC2(CCN(C(=O)[C@@H](CCCc3ccccc3)NC(=O)C(C)(C)N)CC2)c2ccccc21
14 | CC(C)(N)C(=O)N[C@H](Cc1c[nH]c2ccccc12)C(=O)N1CCC2(CCc3ccccc32)CC1 [L-162752]

Continued, compound first:

Compound | EC50 [nM]
CCOC(=O)[C@@H]1CC2(CCN(C(=O)[C@@H](COCc3ccccc3)NC(=O)C(C)(C)N)CC2)c2ccccc21 | 6.6
CCOC(=O)CCC1CC2(CCN(C(=O)[C@@H](CCCc3ccccc3)NC(=O)C(C)(C)N)CC2)c2ccccc21 (stereo partly drawn) | 1.3
CC(C)(N)C(=O)N[C@H](CCCc1ccccc1)C(=O)N1CCC2(CC1)C[C@H](C(=O)O)c1ccccc12 | 2.1
CC(C)(N)C(=O)N[C@@H](CCCc1ccccc1)C(=O)N1CCC2(CCc3ccccc32)CC1 | 10
CC(C)(N)C(=O)N[C@H](CCCc1ccccc1)C(=O)N1CCC2(CC1)C[C@@H](C(=O)O)c1ccccc12 | 2.5
CCOC(=O)[C@@H]1CC2(CCN(C(=O)[C@@H](CCCc3ccccc3)NC(=O)C(C)(C)N)CC2)c2ccccc21 | 2
CCOC(=O)[C@H]1CC2(CCN(C(=O)[C@@H](COCc3ccccc3)NC(=O)C(C)(C)N)CC2)c2ccccc21 | 2.9
CCOC(=O)[C@H]1CC2(CCN(C(=O)[C@@H](CCCc3ccccc3)NC(=O)C(C)(C)N)CC2)c2ccccc21 | 1
CC(C)(N)C(=O)N[C@H](COCc1ccccc1)C(=O)N1CCC2(CCc3ccccc32)CC1 | 17
CC(C)(N)C(=O)N[C@H](COCc1ccccc1)C(=O)N1CCC2(CC1)C[C@H](C(=O)O)c1ccccc12 | 4.4
CC(C)(N)CC(=O)N[C@@H]1CCc2ccccc2N(Cc2ccc(-c3ccccc3-c3nnn[nH]3)cc2)C1=O [3-Amino-3-methyl-N-{2-oxo-1-[2'-(1H-tetrazol-5-yl)-biphenyl-4-ylmethyl]-2,3,4,5-tetrahydro-1H-benzo[b]azepin-3-yl}-butyramide] | 60
C[C@@H](O)CNC(C)(C)CC(=O)N[C@@H]1CCc2ccccc2N(Cc2ccc(-c3ccccc3-c3nnn[nH]3)cc2)C1=O [L-692585] | 3
